Data as given in PubChem BioAssay (NCI).
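Each compound was tested at five concentrations against cells in 96-well plates for 48 hours. GI50 is the concentration that inhibits growth by half. The concentration for full growth arrest is given as TGI.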

How the values were obtained:
Assay in all cases: NCI tumour cell line growth inhibition, 48 h
OVCAR-4 ovarian = tested on: OVCAR-4 ovarian
HOP-62 NSCLC = tested on: HOP-62 NSCLC
UACC-257 melanoma = tested on: UACC-257 melanoma
CAKI-1 renal = tested on: CAKI-1 renal
T-47D breast = tested on: T-47D breast
BT-549 breast = tested on: BT-549 breast
NCI-H460 lung = tested on: NCI-H460 lung
SK-MEL-5 melanoma = tested on: SK-MEL-5 melanoma
786-0 renal = tested on: 786-0 renal
KM12 colon = tested on: KM12 colon
SN12C renal = tested on: SN12C renal
UO-31 renal = tested on: UO-31 renal
NCI-H23 lung = tested on: NCI-H23 lung
MOLT-4 leukemia = tested on: MOLT-4 leukemia
UACC-62 melanoma = tested on: UACC-62 melanoma
MCF7 breast = tested on: MCF7 breast
NCI-H226 lung = tested on: NCI-H226 lung
MALME-3M melanoma = tested on: MALME-3M melanoma
IGROV1 ovarian = tested on: IGROV1 ovarian
M14 melanoma = tested on: M14 melanoma
SR leukemia = tested on: SR leukemia
NCI/ADR-RES ovarian = tested on: NCI/ADR-RES ovarian
DU-145 prostate = tested on: DU-145 prostate
OVCAR-5 ovarian = tested on: OVCAR-5 ovarian
SW-620 colon = tested on: SW-620 colon
U251 CNS = tested on: U251 CNS
MDA-MB-435 = tested on: MDA-MB-435
ACHN renal = tested on: ACHN renal
HCT-15 colon = tested on: HCT-15 colon
EKVX NSCLC = tested on: EKVX NSCLC
OVCAR-8 ovarian = tested on: OVCAR-8 ovarian
TK-10 renal = tested on: TK-10 renal
HOP-92 NSCLC = tested on: HOP-92 NSCLC
NCI-H522 lung = tested on: NCI-H522 lung
HL-60(TB) leukemia = tested on: HL-60(TB) leukemia
RXF 393 renal = tested on: RXF 393 renal
SK-MEL-28 melanoma = tested on: SK-MEL-28 melanoma
COLO 205 colon = tested on: COLO 205 colon
MDA-MB-231 breast = tested on: MDA-MB-231 breast
SF-268 CNS = tested on: SF-268 CNS
CCRF-CEM leukemia = tested on: CCRF-CEM leukemia
PC-3 prostate = tested on: PC-3 prostate
HT29 colon = tested on: HT29 colon
SNB-75 CNS = tested on: SNB-75 CNS
SK-MEL-2 melanoma = tested on: SK-MEL-2 melanoma
SF-539 CNS = tested on: SF-539 CNS
A549 NSCLC = tested on: A549 NSCLC
HCT-116 colon = tested on: HCT-116 colon
K-562 leukemia = tested on: K-562 leukemia
SK-OV-3 ovarian = tested on: SK-OV-3 ovarian
A498 renal = tested on: A498 renal
HS 578T breast = tested on: HS 578T breast
HCC-2998 colon = tested on: HCC-2998 colon
SNB-19 CNS = tested on: SNB-19 CNS
RPMI-8226 leukemia = tested on: RPMI-8226 leukemia
SF-295 CNS = tested on: SF-295 CNS

## C#C[C@]1(O)CC[C@H]2[C@@H]3CC=C4c5sc(Nc6cc(Cl)ccn6)nc5CC[C@]4(C)[C@H]3CC[C@@]21C
OVCAR-4 ovarian
  GI50: 2800 nM
  TGI: > 26200 nM
HOP-62 NSCLC
  GI50: 759 nM
  TGI: 2670 nM
UACC-257 melanoma
  GI50: 727 nM
  TGI: 2200 nM
CAKI-1 renal
  GI50: 725 nM
  TGI: 2200 nM
T-47D breast
  GI50: 2440 nM
  TGI: > 26300 nM
BT-549 breast
  GI50: 627 nM
  TGI: 2360 nM
NCI-H460 lung
  GI50: 922 nM
  TGI: 2670 nM
SK-MEL-5 melanoma
  GI50: 1740 nM
  TGI: 3320 nM
786-0 renal
  GI50: 227 nM
  TGI: 594 nM
KM12 colon
  GI50: 1630 nM
  TGI: 8590 nM
SN12C renal
  GI50: 3360 nM
  TGI: > 100000 nM
UO-31 renal
  GI50: 383 nM
  TGI: 1610 nM
NCI-H23 lung
  GI50: 1350 nM
  TGI: 4710 nM
MOLT-4 leukemia
  GI50: 321 nM
  TGI: 1950 nM
UACC-62 melanoma
  GI50: 846 nM
  TGI: 3900 nM
MCF7 breast
  GI50: 516 nM
  TGI: 3430 nM
NCI-H226 lung
  GI50: 2140 nM
  TGI: 9840 nM
MALME-3M melanoma
  GI50: 663 nM
  TGI: 2100 nM
IGROV1 ovarian
  GI50: 1780 nM
  TGI: > 21200 nM
M14 melanoma
  GI50: 736 nM
  TGI: 2270 nM
SR leukemia
  GI50: 308 nM
  TGI: 1380 nM
NCI/ADR-RES ovarian
  GI50: 1950 nM
  TGI: 6650 nM
DU-145 prostate
  GI50: 2530 nM
  TGI: > 100000 nM
OVCAR-5 ovarian
  GI50: 2140 nM
  TGI: > 20400 nM
SW-620 colon
  GI50: 1090 nM
  TGI: 2680 nM
U251 CNS
  GI50: 425 nM
  TGI: 1670 nM
MDA-MB-435
  GI50: 1060 nM
  TGI: 3090 nM
ACHN renal
  GI50: 834 nM
HCT-15 colon
  GI50: 1010 nM
  TGI: 4880 nM
EKVX NSCLC
  GI50: 1080 nM
  TGI: 4790 nM
OVCAR-8 ovarian
  GI50: 1400 nM
  TGI: 3190 nM
TK-10 renal
  GI50: 2210 nM
  TGI: 11400 nM
HOP-92 NSCLC
  GI50: 1530 nM
  TGI: 3370 nM
NCI-H522 lung
  GI50: 1830 nM
  TGI: 4080 nM
HL-60(TB) leukemia
  GI50: 402 nM
  TGI: 2070 nM
RXF 393 renal
  GI50: 124 nM
  TGI: 380 nM
SK-MEL-28 melanoma
  GI50: 317 nM
  TGI: 1100 nM
COLO 205 colon
  GI50: 1660 nM
  TGI: 3420 nM
MDA-MB-231 breast
  GI50: 1580 nM
  TGI: 4610 nM
SF-268 CNS
  GI50: 1450 nM
  TGI: 4550 nM
CCRF-CEM leukemia
  GI50: 463 nM
  TGI: > 22500 nM
PC-3 prostate
  GI50: 386 nM
  TGI: 3640 nM
HT29 colon
  GI50: 1420 nM
  TGI: 3150 nM
SNB-75 CNS
  GI50: 637 nM
SK-MEL-2 melanoma
  GI50: 1430 nM
  TGI: 3950 nM
SF-539 CNS
  GI50: 214 nM
  TGI: 741 nM
A549 NSCLC
  GI50: 1180 nM
  TGI: 2610 nM
HCT-116 colon
  GI50: 784 nM
  TGI: 2350 nM
K-562 leukemia
  GI50: 366 nM
  TGI: 2450 nM
SK-OV-3 ovarian
  GI50: 663 nM
  TGI: 2170 nM
A498 renal
  GI50: 828 nM
  TGI: 2280 nM
HS 578T breast
  GI50: 278 nM
  TGI: 1170 nM
HCC-2998 colon
  GI50: 2190 nM
  TGI: 5520 nM
SNB-19 CNS
  GI50: 1230 nM
RPMI-8226 leukemia
  GI50: 212 nM
  TGI: 749 nM

## O=C(Nc1cccc(C(F)(F)F)c1)c1cc(-c2ccc(F)cc2F)ccc1O
OVCAR-4 ovarian
  GI50: 3110 nM
  TGI: 95700 nM
HOP-62 NSCLC
  GI50: 2930 nM
  TGI: 9310 nM
UACC-257 melanoma
  GI50: 1500 nM
  TGI: 6970 nM
CAKI-1 renal
  GI50: 1790 nM
  TGI: 5690 nM
T-47D breast
  GI50: 2200 nM
  TGI: 8640 nM
BT-549 breast
  GI50: 2130 nM
  TGI: 7240 nM
NCI-H460 lung
  GI50: 2670 nM
  TGI: 13300 nM
SK-MEL-5 melanoma
  GI50: 1250 nM
  TGI: 2860 nM
786-0 renal
  GI50: 3270 nM
  TGI: 12000 nM
KM12 colon
  GI50: 2440 nM
  TGI: 6120 nM
SN12C renal
  GI50: 1990 nM
  TGI: 7610 nM
UO-31 renal
  GI50: 2460 nM
  TGI: 10600 nM
NCI-H23 lung
  GI50: 1890 nM
  TGI: 5580 nM
MOLT-4 leukemia
  GI50: 2130 nM
  TGI: 5580 nM
UACC-62 melanoma
  GI50: 1160 nM
  TGI: 4220 nM
MCF7 breast
  GI50: 2180 nM
  TGI: 9290 nM
NCI-H226 lung
  GI50: 2010 nM
  TGI: 5340 nM
MALME-3M melanoma
  GI50: 1770 nM
  TGI: 4650 nM
IGROV1 ovarian
  GI50: 2820 nM
  TGI: 17000 nM
M14 melanoma
  GI50: 3020 nM
  TGI: 10500 nM
SR leukemia
  GI50: 2760 nM
  TGI: 14000 nM
NCI/ADR-RES ovarian
  GI50: 2570 nM
  TGI: 8630 nM
DU-145 prostate
  GI50: 3550 nM
  TGI: > 100000 nM
SF-295 CNS
  GI50: 1750 nM
  TGI: 3570 nM
OVCAR-5 ovarian
  GI50: 3410 nM
  TGI: 26400 nM
SW-620 colon
  GI50: 3610 nM
  TGI: 14500 nM
U251 CNS
  GI50: 2990 nM
  TGI: 17500 nM
MDA-MB-435
  GI50: 2500 nM
  TGI: 7110 nM
ACHN renal
  GI50: 2760 nM
  TGI: 8670 nM
HCT-15 colon
  GI50: 2210 nM
  TGI: 6990 nM
EKVX NSCLC
  GI50: 2280 nM
  TGI: 8980 nM
OVCAR-8 ovarian
  GI50: 2920 nM
  TGI: > 100000 nM
TK-10 renal
  GI50: 4550 nM
  TGI: 30500 nM
HOP-92 NSCLC
  GI50: 824 nM
  TGI: 4280 nM
NCI-H522 lung
  GI50: 1320 nM
  TGI: 9580 nM
HL-60(TB) leukemia
  GI50: 2060 nM
  TGI: 4970 nM
RXF 393 renal
  GI50: 2060 nM
  TGI: 6220 nM
SK-MEL-28 melanoma
  GI50: 2170 nM
  TGI: 7580 nM
COLO 205 colon
  GI50: 3220 nM
  TGI: 10200 nM
MDA-MB-231 breast
  GI50: 2010 nM
  TGI: 5170 nM
SF-268 CNS
  GI50: 2670 nM
  TGI: 16700 nM
CCRF-CEM leukemia
  GI50: 2970 nM
  TGI: 48600 nM
PC-3 prostate
  GI50: 2890 nM
  TGI: 15100 nM
HT29 colon
  GI50: 3270 nM
  TGI: 16900 nM
SNB-75 CNS
  GI50: 1520 nM
  TGI: 4250 nM
SK-MEL-2 melanoma
  GI50: 1460 nM
  TGI: 4950 nM
SF-539 CNS
  GI50: 3050 nM
  TGI: 11000 nM
A549 NSCLC
  GI50: 3260 nM
  TGI: > 100000 nM
HCT-116 colon
  GI50: 1890 nM
  TGI: 4980 nM
K-562 leukemia
  GI50: 2230 nM
  TGI: > 100000 nM
SK-OV-3 ovarian
  GI50: 2430 nM
  TGI: 8620 nM
A498 renal
  GI50: 923 nM
  TGI: 3210 nM
HS 578T breast
  GI50: 2470 nM
  TGI: 9630 nM
HCC-2998 colon
  GI50: 3070 nM
  TGI: 13200 nM
SNB-19 CNS
  GI50: 3080 nM
  TGI: 73500 nM
RPMI-8226 leukemia
  GI50: 1440 nM
  TGI: 5280 nM
